ChEMBL document CHEMBL1134000, “Structure elucidation and conformational properties of a novel bioactive clerodane diterpene using a combination of high field NMR spectroscopy, computational analysis and X-ray diffraction” (2001)
Converted amounts (≈) assume the structure as drawn.

Columns and labels:
Staphylococcus aureus = assay: Minimum inhibitory concentration against Staphylococcus aureus (ATCC 6538); type: functional
[1] = system: Staphylococcus epidermidis; assay: Minimum inhibitory concentration against Staphylococcus epidermidis (ATCC 12228); type: functional
Staphylococcus hominis = assay: Minimum inhibitory concentration against Staphylococcus hominis (ATCC 27844); type: functional
Klebsiella pneumoniae = assay: Minimum inhibitory concentration against Klebsiella pneumoniae (ATCC 13883); type: functional
Escherichia coli = assay: Minimum inhibitory concentration against Escherichia coli (ATCC 25922); type: functional
[2] = Minimum inhibitory concentration against Pseudomonas aeruginosa; type: functional, […] aeruginosa

C=C[C@](C)(O)CC[C@@H]1[C@@]2(C)CCCC(C)(C)[C@@H]2CC[C@@]1(C)O [SCLAREOL]
MIC50 (Staphylococcus aureus): 320 µM (≈ 98.7 µg/mL) | MIC50 [1]: 320 µM (≈ 98.7 µg/mL) | MIC50 (Staphylococcus hominis): 320 µM (≈ 98.7 µg/mL)

CC(=O)OCC1=CCC[C@@H]2[C@@](C)(CC[C@H](C)CC(=O)O)[C@H](C)CC[C@]12C
MIC50 (Klebsiella pneumoniae): 1370 µM (≈ 499 µg/mL) | MIC50 (Escherichia coli): 1370 µM (≈ 499 µg/mL) | MIC50 [2]: 1370 µM (≈ 499 µg/mL) | MIC50 (Staphylococcus aureus): 85 µM (≈ 31 µg/mL) | MIC50 [1]: 85 µM (≈ 31 µg/mL) | MIC50 (Staphylococcus hominis): 85 µM (≈ 31 µg/mL)

C[C@@H](CC[C@@]1(C)[C@H](C)CC[C@]2(C)C(CO)=CCC[C@H]12)CC(=O)O
MIC50 (Klebsiella pneumoniae): 930 µM (≈ 300 µg/mL) | MIC50 (Escherichia coli): 930 µM (≈ 300 µg/mL) | MIC50 [2]: 930 µM (≈ 300 µg/mL) | MIC50 (Staphylococcus aureus): 1240 µM (≈ 400 µg/mL) | MIC50 [1]: 1240 µM (≈ 400 µg/mL) | MIC50 (Staphylococcus hominis): 1240 µM (≈ 400 µg/mL)

CN[C@@H]1[C@H](O[C@H]2[C@H](O[C@H]3[C@H](O)[C@@H](O)[C@H](N=C(N)N)[C@@H](O)[C@@H]3N=C(N)N)O[C@@H](C)[C@]2(O)C=O)O[C@@H](CO)[C@H](O)[C@H]1O [STREPTOMYCIN]
MIC50 (Klebsiella pneumoniae): 0.6 µM (≈ 0.349 µg/mL) | MIC50 (Escherichia coli): 0.6 µM (≈ 0.349 µg/mL) | MIC50 (Staphylococcus aureus): 2.1 µM (≈ 1.22 µg/mL) | MIC50 [1]: 2.1 µM (≈ 1.22 µg/mL) | MIC50 (Staphylococcus hominis): 2.1 µM (≈ 1.22 µg/mL)
